Assay [1] has as its system vascular endothelial growth factor (VEGF). Briefly: VEGF expression in Kelly neuroblastoma cells. In kind it is cell-based. Particulars: for VEGF: conditioned media after overnight incubation. In outline: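 Kelly neuroblastoma cells treated overnight with compound, 1% DMSO as negative control. EPO and VEGF secreted into conditioned media measured by QUANTIKINE immunoassay.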

Assay [2] deals with erythropoietin (EPO). Briefly: EPO expression in Hep3B cells (QUANTIKINE immunoassay of conditioned media). Particulars: for Fold Increase Over Control: EPO, vs 1% DMSO control; for EPO: conditioned media after overnight incubation with compound. In kind it is cell-based, Human. In outline: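 Confluent Hep3B cells were switched to OPTI-MEM for about 24 h (20% O2, 5% CO2, 37 °C), then treated overnight with compound or 1% DMSO vehicle. EPO secreted into the conditioned medium was measured by QUANTIKINE immunoassay.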

Assay [3] deals with C57BL/6 mice, permanent occlusion of the MCA. Briefly: Permanent middle cerebral artery occlusion (pMCAO) in C57BL/6 mice: infarct volume and edema. The format is in vivo. Particulars: for Percent Reduction in Edema / inhibition in vivo at up to 20 mg/kg: C57BL/6 mice pMCAO, 20-60 mg/kg i.v., compound given 0 hr; for inhibition in vivo at up to 20 mg/kg / inhibition in vivo at 60 mg/kg: Mus musculus, iv, read-out: Percent Reduction in Infarct Volume; for inhibition in vivo at up to 20 mg/kg: 24 h, 24 hours after MCA occlusion; for inhibition in vivo at 60 mg/kg: C57BL/6 pMCAO. In outline: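 Male mice (25-35 g) under avertin anaesthesia had the distal MCA coagulated through a craniotomy; compound given as single i.v. bolus (20-60 mg/kg, 6 ml/kg in 5% dextrose with equimolar meglumine or NaOH) before or up to 8 h after occlusion.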

Assay [4] concerns VEGF. The experiment in a line: Plasma VEGF in mice after intravenous injection. In kind it is in vivo, Swiss Webster mice. Particulars: mouse plasma, 20 mg/kg i.v., four hours after injection; for fold induction at 20 mg/kg: iv, 4 h, read-out: VEGF Fold Increase. In a few lines:
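Male Swiss Webster mice (29-34 g) received 20 mg/kg compound or vehicle by tail-vein injection in 5% dextrose with equimolar NaOH or meglumine. Plasma was collected 4 h later, and EPO and VEGF were measured by ELISA.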

Read-outs that look alike come from different tables or passages of the source.

With `Cc1cccc(C)c1Oc1ccc2c(C#N)nc(C(=O)NCC(=O)O)c(O)c2c1` [Compound AL, {[1-Cyano-6-(2,6-dimethyl-phenoxy)-4-hydroxy-isoquinoline-3-carbonyl]-amino}-acetic acid], in assay [1], the “VEGF Fold Increase” value is recorded as 3.8 and the VEGF is 5499 pg/mL. Besides, in assay [2], the “Fold Increase Over Control” value was 13.9 and the EPO amounted to 74.8 mIU/ml. In assay [3], the “Percent Reduction in Edema” value was 73% and the inhibition in vivo at up to 20 mg/kg was found to be 43%. Besides, in assay [4], the fold induction at 20 mg/kg is 2.06 and the VEGF amounted to 130 pg/mL.

In the case of `N#Cc1nc(C(=O)NCC(=O)O)c(O)c2c(Oc3ccc(F)cc3)cccc12` [Compound AS, {[1-Cyano-5-(4-fluoro-phenoxy)-4-hydroxy-isoquinoline-3-carbonyl]-amino}-acetic acid], in assay [1], the “VEGF Fold Increase” value worked out at 5.6 and the VEGF worked out at 8197 pg/mL. For the same compound, in assay [2], the “Fold Increase Over Control” value is on record as 10.7 and the EPO came out at 40.5 mIU/ml. In assay [3], the “Percent Reduction in Edema” value is 54% and the inhibition in vivo at up to 20 mg/kg is 50%. Besides, in assay [4], the fold induction at 20 mg/kg came to 0.57 and the VEGF was determined as 20 pg/mL.

For `COc1ccc(Oc2ccc3c(O)c(C(=O)NCC(=O)O)ncc3c2)cc1` [Compound F, {[4-Hydroxy-7-(4-methoxy-phenoxy)-isoquinoline-3-carbonyl]-amino}-acetic acid], the “VEGF Fold Increase” value in assay [1] was found to be 16.2. Also, the VEGF in assay [1] is 2564.9 pg/mL; in assay [4], 64 pg/mL. Moreover, the “Fold Increase Over Control” value in assay [2] was determined as 3.0. For the same compound, the EPO in assay [2] was 369.4 mIU/ml. In assay [3], the “Percent Reduction in Edema” value was 47%. Moreover, the inhibition in vivo at 60 mg/kg was found to be 43% in assay [3] (0 h, 60 mg/kg single i.v. bolus (Meglumine vehicle), 0 hr after MCA occlusion); 50% in assay [3] (0 h, 60 mg/kg single i.v. bolus (NaOH vehicle), 0 hr after MCA occlusion); 62% in assay [3] (1 h, 60 mg/kg single i.v. bolus (NaOH vehicle), 1 hr after MCA occlusion); 53% in assay [3] (3 h, 60 mg/kg single i.v. bolus (NaOH vehicle), 3 hr after MCA occlusion); 36% in assay [3] (4 h, 60 mg/kg single i.v. bolus (Meglumine vehicle), 4 hr after MCA occlusion); 55% in assay [3] (5 h, 60 mg/kg single i.v. bolus (NaOH vehicle), 5 hr after MCA occlusion). In addition, the inhibition in vivo at 60 mg/kg in assay [3] (6 h, 60 mg/kg single i.v. bolus (Meglumine vehicle), 6 hr after MCA occlusion) worked out at 15%; in assay [3] (8 h, 60 mg/kg single i.v. bolus (Meglumine vehicle), 8 hr after MCA occlusion), 8%. Moreover, in assay [3], the inhibition in vivo at up to 20 mg/kg worked out at 68%. Besides, the fold induction at 20 mg/kg in assay [4] came out at 2.21.

The values are drawn from US9775902B2, “Compounds and methods for treatment of stroke” (FIBROGEN, INC, priority 2006, dated 2017).
